The values that follow come from patent US5716963A, “Anthraquinonic derivatives having an antitumor activity and applications thereof” (Universidad Complutense De Madrid, priority 1994, dated 1998).

For one assay, the system named is P-388. The assay is described as follows: IC50 growth inhibition, P-388 suspension culture. The format is cell-based, DBA/2 mouse. The conditions noted are these: Mus musculus, P388, 72 h, three days, 37° C., 10% CO2, approximate IC50, in duplicate. On the procedure:
(§1) Cell cultures: The cells were kept in logarithmic phase of growth in Eagle's Minimum Essential Medium, with Earle's Balanced Salts, with L-gluatamine 2.0 mM, with non-essential amino acids and without sodium bicarbonate (EMEM-NEAA); supplemented with Fetal Calf Serum (FCS) 10% sodium bicarbonate 10^-2 and with 0.1 g/l penicillin-G+-streptomycin sulfate.
(§2) To determine and to compare the antitumor activity of these compounds, a simple screening process was carried out using an adapted form of the method described by Bergeron et al. (1984) ((1) Raymond J. Bergeron, Paul F. Cavanaugh, Jr., Steven J. Kline, Robert G. Hughes, Jr., Gary T. Elliot and Carl W. Porter. Antineoplastic and antiherpetic activity of spermidine catecholamide iron chelators. Biochem. Bioph. Res. Comm. 1984, 121 (3), 848-854; (2) Alan C. Schroeder, Robert G. Hughes, Jr. and Alexander Bloch. Effects of Acyclic pyrimidine nucleoside analogues. J. Med. Chem. 1981, 24, 1078-1083). The antitumor cells used have been P-388 (culture in DBA/2 mouse lymphoid neoplasm suspension), A-549 (human lung carcinoma monolayer culture); HT-29 human colon carcinoma monolayer culture) and MEL (human melanoma monolayer culture).
The P-388 cells were seeded in 16 mm cups at 1×10^4 cells per cup in aliquots at 1 ml. MEM 5FCS that contains the indicated drug concentration. Separately, a batch of cultures without any drug was seeded as a growth control to ensure that the cells were kept in a logarithmic phase of growth. All the determinations were carried out in duplicate. After three days of incubation at 37° C., 10% CO2 in an atmosphere with 98% humidity, the approximate IC50 was determined by comparing the growth in the cups with the drug and the control cups.

For another assay, the system named is A-549. As to the kind of experiment: IC50 growth inhibition, A-549 monolayer culture (crystal violet). It is filed as cell-based. The conditions noted are these: Homo sapiens, A549, 72 h, three days, 37° C., 10% CO2, crystal violet 0.1%, approximate IC50, in duplicate. On the procedure:
as §1, §2
(§3) The A-549, HT-29 and MEL-28 cells were seeded in 16 mm cups at […] cells per cup in aliquots of […] of MEM 10FCS that contain the indicated drug concentration. Separately, a batch of cultures without any drug was seeded as a growth control to ensure that the cells were kept in a logarithmic phase of growth. All the determinations were carried out in duplicate. After three days of incubation at 37° C., 10% CO2 in an atmosphere with 98% humidity, the cups were stained with crystal violet 0.1%. The approximate IC50 was determined by comparing the growth in the cups with the drug and the growth in the control cups.

For a further assay, the system named is HT-29. The assay is described as follows: IC50 growth inhibition, HT-29 monolayer culture (crystal violet). The format is cell-based. The conditions noted are these: Homo sapiens, 72 h, three days, 37° C., 10% CO2, crystal violet 0.1%, approximate IC50, in duplicate. Here is the method: as §1, §2, §3
The test system of another assay is MEL-28. The assay is described as follows: IC50 growth inhibition, MEL-28 monolayer culture (crystal violet). The format is cell-based. Conditions: Homo sapiens, SK-MEL-28, 72 h, three days, 37° C., 10% CO2, crystal violet 0.1%, approximate IC50, in duplicate. On the procedure: as §1, §2, §3
The next assay has as its system Gram positive bacteria. The conditions noted are these: cited from earlier work.
The subject of another assay is thymidilate synthetase. Conditions: cited from earlier work.

Converted amounts (≈) assume the structure as drawn. A value given as a limit tells only on which side of the number the result lay.

Turning to `CC1=C(C)CC2C(=O)c3c(C)cc(=O)[nH]c3C(=O)C2C1` (stereo not shown) [(I-a), 4,6,7-trimethyl-5,8,8a,10a-tetrahydro-1H-1-azaathracen-2,9,10-trione], the IC50 – broadly, the concentration at which inhibition is half-maximal – was found to be 1 µg/mL (≈ 3.69 µM) in the assay with P-388, 0.25 µg/mL (≈ 0.921 µM) with A-549 and 1 µg/mL (≈ 3.69 µM) in the assay with HT-29.
Turning to `CCOc1nc2c(cc1C)C(=O)c1ccccc1C2=O` [(I-b), 2-ethoxy-3-methyl-1-azaanthracen-9,10-dione], the IC50 was 5 µg/mL (≈ 18.7 µM) in the assay with P-388, 0.25 µg/mL (≈ 0.935 µM) in the assay on A-549, 10 µg/mL (≈ 37.4 µM) in the assay on HT-29 and 5 µg/mL (≈ 18.7 µM) in the assay with MEL-28.
Take `CCc1cc2c([nH]c1=O)C(=O)c1[nH]c(=O)cc(C)c1C2=O` [(I-c)]: the IC50 was 0.1 µg/mL (≈ 0.352 µM) in the assay on P-388, 0.025 µg/mL (≈ 0.0879 µM) in the assay with A-549, 0.1 µg/mL (≈ 0.352 µM) with HT-29 and 0.1 µg/mL (≈ 0.352 µM) in the assay on MEL-28.
Regarding `CC(=O)c1cc2c([nH]c1=O)C(=O)c1ncc(C)cc1C2=O` [(I-d)], the IC50 in the assay with P-388 is 1 µg/mL (≈ 3.54 µM); in the assay on A-549 it was 0.25 µg/mL (≈ 0.886 µM); in the assay with HT-29 it was 1 µg/mL (≈ 3.54 µM); with MEL-28, 0.25 µg/mL (≈ 0.886 µM).
As to `Cc1cc(=O)[nH]c2c1C(=O)c1cc(F)cnc1C2=O` [(I-e), 6-fluoro-4-methyl-1H,1,8-diazaanthracen-2,9,10-trione], the IC50 in the assay on P-388 was 0.005 µg/mL (≈ 0.0194 µM); in the assay on A-549, 0.02 µg/mL (≈ 0.0775 µM); in the assay on HT-29, 0.05 µg/mL (≈ 0.194 µM); in the assay on MEL-28 it was 0.05 µg/mL (≈ 0.194 µM).
Turning to `Cc1cc(=O)[nH]c2c1C(=O)c1cc(N(C)C)cnc1C2=O` [(I-f), 6-dimethylamino-4-methyl-1H-1,8-diazaanthracen-2,9,10-trione], the IC50 in the assay with P-388, in the assay with A-549, with HT-29 and in the assay on MEL-28 was 0.02 µg/mL (≈ 0.0706 µM) throughout.
With `Cc1cc(=O)[nH]c2c1C(=O)C1=C(NC=CC1c1ccccc1[N+](=O)[O-])C2=O` (stereo not shown) [(I-g), 4-methyl-5-(2-nitrophenyl)-5,8-dihydro-1H-1,8-diazaanthracen-2,9,10-trione], the IC50 with P-388 is 0.5 µg/mL (≈ 1.38 µM); in the assay with A-549 it was 0.05 µg/mL (≈ 0.138 µM); with HT-29, 0.05 µg/mL (≈ 0.138 µM); with MEL-28 it was 0.1 µg/mL (≈ 0.275 µM).
With `Cc1cc(=O)[nH]c2c1C(=O)c1cc(C)c(=O)[nH]c1C2=O` [(I-h), 3,5-dimethyl-1,8-dihydro-1,8-diazaanthracen-2,7,9,10-tetraone], the IC50 came out at 0.05 µg/mL (≈ 0.185 µM) in the assay with P-388, 0.05 µg/mL (≈ 0.185 µM) in the assay with A-549, 0.05 µg/mL (≈ 0.185 µM) in the assay with HT-29 and 0.025 µg/mL (≈ 0.0925 µM) in the assay on MEL-28.
Consider `O=C1c2cc(F)cnc2C(=O)c2ncc(F)cc21` [(I-i), 3,6-difluoro-1,8-diazaanthracen-9,10-dione], for which the IC50 with P-388 came out at 0.025 µg/mL (≈ 0.102 µM); in the assay on A-549, 0.1 µg/mL (≈ 0.406 µM); in the assay with HT-29 it was 0.1 µg/mL (≈ 0.406 µM); with MEL-28 it was 0.025 µg/mL (≈ 0.102 µM).
On to `Cc1cnc2c(c1)C(=O)c1cc(-c3ccccc3)c(=O)[nH]c1C2=O` [(I-j), 6-methyl-3-phenyl-1H-1,8-diazaanthracen-2,9,10-trione], for which the IC50 in the assay on P-388 was 2.5 µg/mL (≈ 7.9 µM); with A-549, 5 µg/mL (≈ 15.8 µM); in the assay with HT-29, 10 µg/mL (≈ 31.6 µM); with MEL-28 it was above 10 µg/mL.
Turning to `CC1C(F)=CNC2=C1C(=O)c1ccccc1C2=O` (stereo not shown) [(I-k), 3-fluoro-4-methyl-1,4-dihydro-1-azaanthracen-9,10-dione], the IC50 with P-388 came to 0.25 µg/mL (≈ 1.03 µM); in the assay on A-549, 0.25 µg/mL (≈ 1.03 µM); in the assay on HT-29, 0.25 µg/mL (≈ 1.03 µM); with MEL-28, 0.12 µg/mL (≈ 0.493 µM).
Take `O=C1c2ccccc2C(=O)c2ncc(F)cc21` [(I-l), 3-fluoro-1-azaanthracen-9,10-dione]: the IC50 worked out at 0.25 µg/mL (≈ 1.1 µM) with P-388, 0.05 µg/mL (≈ 0.22 µM) with A-549, 0.25 µg/mL (≈ 1.1 µM) with HT-29 and 0.05 µg/mL (≈ 0.22 µM) in the assay with MEL-28.
On to `CCCc1c2c([nH]c(=O)c1C)C(=O)c1[nH]c(=O)c(C)c(CCC)c1C2=O` [Diazaquinomycin A], for which the “activity against Gram positive bacteria” value in the assay on Gram positive bacteria is listed as “goods activity against Gram positive bacteria”. The “capacity to inhibit thymidilate synthetase” value with thymidilate synthetase is on record as “capacity to inhibit thymidilate synthetase”.
